Like-named read-outs stand apart in the source and are kept apart here.
Key:
PDE6A/B = experiment: IMAP fluorescence polarization PDE assay, recombinant PDE isozymes; format: biochemical; design: key: Inactive: >100 µmol/L shows no inhibition; conditions: substrate cGMP
Protocol: (§1) The enzymatic activity of recombinant PDE or PDE activities in cell lysates were measured using the IMAP fluorescence polarization (FP) PDE assay (Molecular Devices) as previously described. PDE10 inhibitors and DMSO as the vehicle were added to assay buffer 10 minutes before the incubation with the enzyme reaction. Fluorescence polarization values were measured using Synergy H4 Hybrid Reader (BioTek).

PDE7A = PDE7A (Homo sapiens, UniProt Q13946); experiment: as above; format: biochemical; design: key: Inactive: >100 µmol/L shows no inhibition; conditions: substrate cAMP
Protocol: as §1

PDE8A = PDE8A (Homo sapiens, UniProt O60658); experiment: as above; format: biochemical; design: key: Inactive: >100 µmol/L shows no inhibition; conditions: substrate cAMP
Chain of PDE8A (O60658 whole entry): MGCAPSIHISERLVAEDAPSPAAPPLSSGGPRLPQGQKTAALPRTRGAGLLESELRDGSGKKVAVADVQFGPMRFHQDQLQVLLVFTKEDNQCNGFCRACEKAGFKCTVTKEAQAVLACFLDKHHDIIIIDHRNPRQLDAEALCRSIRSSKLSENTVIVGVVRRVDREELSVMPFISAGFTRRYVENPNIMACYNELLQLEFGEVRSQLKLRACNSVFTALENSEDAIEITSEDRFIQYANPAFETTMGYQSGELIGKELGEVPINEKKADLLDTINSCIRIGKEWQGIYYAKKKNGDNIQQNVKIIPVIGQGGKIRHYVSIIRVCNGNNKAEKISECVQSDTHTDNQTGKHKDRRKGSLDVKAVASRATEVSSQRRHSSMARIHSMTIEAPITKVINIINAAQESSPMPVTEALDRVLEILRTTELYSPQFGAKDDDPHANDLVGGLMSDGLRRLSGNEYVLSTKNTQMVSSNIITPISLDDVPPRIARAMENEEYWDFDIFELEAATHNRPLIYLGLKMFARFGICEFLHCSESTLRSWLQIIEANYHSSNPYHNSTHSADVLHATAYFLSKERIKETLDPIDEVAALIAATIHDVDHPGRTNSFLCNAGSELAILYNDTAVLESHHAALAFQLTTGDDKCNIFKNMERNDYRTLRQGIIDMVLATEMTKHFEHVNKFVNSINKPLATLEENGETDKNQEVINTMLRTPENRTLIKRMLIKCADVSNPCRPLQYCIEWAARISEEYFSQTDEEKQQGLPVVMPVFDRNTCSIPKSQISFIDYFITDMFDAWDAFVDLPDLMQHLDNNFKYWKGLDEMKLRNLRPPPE
Protocol: as §1

PDE9A = PDE9A (Homo sapiens, UniProt O76083); experiment: as above; format: biochemical; design: key: Inactive: >100 µmol/L shows no inhibition; conditions: substrate cGMP
Protocol: as §1

PDE10A = PDE10A (Homo sapiens, UniProt Q9Y233); experiment: as above; format: biochemical
Chain of PDE10A (Q9Y233 718-1035 limits assumed): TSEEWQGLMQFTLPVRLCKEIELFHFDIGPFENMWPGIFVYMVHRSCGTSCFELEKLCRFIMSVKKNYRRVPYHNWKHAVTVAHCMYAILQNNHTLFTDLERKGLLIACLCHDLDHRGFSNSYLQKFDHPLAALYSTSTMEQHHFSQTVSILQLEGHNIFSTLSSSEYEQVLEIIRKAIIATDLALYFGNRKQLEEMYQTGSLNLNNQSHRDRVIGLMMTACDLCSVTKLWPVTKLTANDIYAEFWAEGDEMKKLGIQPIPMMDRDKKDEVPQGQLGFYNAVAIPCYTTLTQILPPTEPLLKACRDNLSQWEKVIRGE
Protocol: as §1

PDE11A = PDE11A (Homo sapiens, UniProt Q9HCR9); experiment: as above; format: biochemical
Chain of PDE11A (Q9HCR9 whole entry): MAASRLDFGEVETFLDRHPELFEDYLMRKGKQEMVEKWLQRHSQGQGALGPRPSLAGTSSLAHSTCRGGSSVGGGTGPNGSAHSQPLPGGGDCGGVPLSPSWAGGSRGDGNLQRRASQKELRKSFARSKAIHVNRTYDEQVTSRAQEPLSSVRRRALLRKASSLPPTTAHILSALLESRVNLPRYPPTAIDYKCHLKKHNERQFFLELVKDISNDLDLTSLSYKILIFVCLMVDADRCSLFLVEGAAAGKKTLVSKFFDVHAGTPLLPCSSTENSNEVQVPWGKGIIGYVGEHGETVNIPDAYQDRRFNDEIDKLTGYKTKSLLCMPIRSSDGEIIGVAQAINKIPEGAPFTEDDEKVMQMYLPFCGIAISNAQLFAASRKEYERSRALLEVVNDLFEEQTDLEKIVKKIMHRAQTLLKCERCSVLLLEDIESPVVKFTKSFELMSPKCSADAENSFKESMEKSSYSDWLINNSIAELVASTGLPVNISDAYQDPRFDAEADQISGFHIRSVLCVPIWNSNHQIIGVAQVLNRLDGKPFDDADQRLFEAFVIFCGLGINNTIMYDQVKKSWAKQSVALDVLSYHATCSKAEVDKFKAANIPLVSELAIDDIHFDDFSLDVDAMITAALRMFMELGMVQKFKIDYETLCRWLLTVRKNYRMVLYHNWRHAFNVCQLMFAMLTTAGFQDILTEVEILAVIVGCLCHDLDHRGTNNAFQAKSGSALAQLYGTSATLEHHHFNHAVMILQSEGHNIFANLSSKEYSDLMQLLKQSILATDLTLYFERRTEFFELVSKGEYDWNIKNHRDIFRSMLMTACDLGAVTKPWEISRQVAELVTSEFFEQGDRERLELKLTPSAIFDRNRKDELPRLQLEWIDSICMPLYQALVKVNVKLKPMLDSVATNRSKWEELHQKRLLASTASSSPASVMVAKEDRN
Protocol: as §1

PDE1A = PDE1A (Homo sapiens, UniProt P54750); experiment: as above; format: biochemical
Chain of PDE1A (P54750 whole entry): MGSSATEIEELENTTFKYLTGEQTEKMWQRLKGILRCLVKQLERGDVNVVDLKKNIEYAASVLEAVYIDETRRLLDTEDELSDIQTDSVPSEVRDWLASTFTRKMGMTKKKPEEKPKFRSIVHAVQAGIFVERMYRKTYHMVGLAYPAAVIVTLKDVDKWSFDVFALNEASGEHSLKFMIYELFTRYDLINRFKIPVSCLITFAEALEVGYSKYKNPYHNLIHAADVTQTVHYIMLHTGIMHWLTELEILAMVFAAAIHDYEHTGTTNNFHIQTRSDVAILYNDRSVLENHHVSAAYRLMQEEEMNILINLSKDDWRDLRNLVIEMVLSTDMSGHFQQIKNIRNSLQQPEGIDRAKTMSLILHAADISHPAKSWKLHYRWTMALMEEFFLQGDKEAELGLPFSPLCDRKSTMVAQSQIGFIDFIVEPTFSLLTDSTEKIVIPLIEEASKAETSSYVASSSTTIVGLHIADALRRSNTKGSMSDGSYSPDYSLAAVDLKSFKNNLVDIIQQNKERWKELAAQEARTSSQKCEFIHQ
Protocol: as §1

PDE2A = PDE2A (Homo sapiens, UniProt O00408); experiment: as above; format: biochemical
Chain of PDE2A (O00408 whole entry): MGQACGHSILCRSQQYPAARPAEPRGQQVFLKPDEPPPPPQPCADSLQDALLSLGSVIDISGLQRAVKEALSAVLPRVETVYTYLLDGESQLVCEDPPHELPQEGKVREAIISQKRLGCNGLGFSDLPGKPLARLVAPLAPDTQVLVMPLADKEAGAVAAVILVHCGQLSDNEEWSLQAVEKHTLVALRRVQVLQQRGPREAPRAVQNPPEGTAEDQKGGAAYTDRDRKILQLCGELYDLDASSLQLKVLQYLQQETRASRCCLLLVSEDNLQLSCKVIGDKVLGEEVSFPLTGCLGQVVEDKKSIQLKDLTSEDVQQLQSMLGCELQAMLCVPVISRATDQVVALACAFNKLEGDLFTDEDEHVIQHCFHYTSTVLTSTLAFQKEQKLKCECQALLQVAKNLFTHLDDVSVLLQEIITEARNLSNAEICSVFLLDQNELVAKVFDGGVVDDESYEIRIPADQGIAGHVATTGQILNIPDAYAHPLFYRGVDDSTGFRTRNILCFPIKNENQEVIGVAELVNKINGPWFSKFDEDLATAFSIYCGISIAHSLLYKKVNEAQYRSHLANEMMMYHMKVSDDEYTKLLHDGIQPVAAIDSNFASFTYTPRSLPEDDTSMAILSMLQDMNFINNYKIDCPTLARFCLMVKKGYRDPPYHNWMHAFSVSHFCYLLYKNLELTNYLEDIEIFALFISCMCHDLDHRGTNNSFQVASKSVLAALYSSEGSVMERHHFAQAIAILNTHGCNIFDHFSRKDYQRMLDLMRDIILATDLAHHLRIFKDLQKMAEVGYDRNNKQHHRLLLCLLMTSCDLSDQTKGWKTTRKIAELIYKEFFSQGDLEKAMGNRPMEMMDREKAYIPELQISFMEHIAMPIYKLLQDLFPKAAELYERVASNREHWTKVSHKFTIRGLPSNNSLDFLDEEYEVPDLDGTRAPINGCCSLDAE
Protocol: as §1

PDE3A = PDE3A (Homo sapiens, UniProt Q14432); experiment: as above; format: biochemical
Chain of PDE3A (Q14432 whole entry): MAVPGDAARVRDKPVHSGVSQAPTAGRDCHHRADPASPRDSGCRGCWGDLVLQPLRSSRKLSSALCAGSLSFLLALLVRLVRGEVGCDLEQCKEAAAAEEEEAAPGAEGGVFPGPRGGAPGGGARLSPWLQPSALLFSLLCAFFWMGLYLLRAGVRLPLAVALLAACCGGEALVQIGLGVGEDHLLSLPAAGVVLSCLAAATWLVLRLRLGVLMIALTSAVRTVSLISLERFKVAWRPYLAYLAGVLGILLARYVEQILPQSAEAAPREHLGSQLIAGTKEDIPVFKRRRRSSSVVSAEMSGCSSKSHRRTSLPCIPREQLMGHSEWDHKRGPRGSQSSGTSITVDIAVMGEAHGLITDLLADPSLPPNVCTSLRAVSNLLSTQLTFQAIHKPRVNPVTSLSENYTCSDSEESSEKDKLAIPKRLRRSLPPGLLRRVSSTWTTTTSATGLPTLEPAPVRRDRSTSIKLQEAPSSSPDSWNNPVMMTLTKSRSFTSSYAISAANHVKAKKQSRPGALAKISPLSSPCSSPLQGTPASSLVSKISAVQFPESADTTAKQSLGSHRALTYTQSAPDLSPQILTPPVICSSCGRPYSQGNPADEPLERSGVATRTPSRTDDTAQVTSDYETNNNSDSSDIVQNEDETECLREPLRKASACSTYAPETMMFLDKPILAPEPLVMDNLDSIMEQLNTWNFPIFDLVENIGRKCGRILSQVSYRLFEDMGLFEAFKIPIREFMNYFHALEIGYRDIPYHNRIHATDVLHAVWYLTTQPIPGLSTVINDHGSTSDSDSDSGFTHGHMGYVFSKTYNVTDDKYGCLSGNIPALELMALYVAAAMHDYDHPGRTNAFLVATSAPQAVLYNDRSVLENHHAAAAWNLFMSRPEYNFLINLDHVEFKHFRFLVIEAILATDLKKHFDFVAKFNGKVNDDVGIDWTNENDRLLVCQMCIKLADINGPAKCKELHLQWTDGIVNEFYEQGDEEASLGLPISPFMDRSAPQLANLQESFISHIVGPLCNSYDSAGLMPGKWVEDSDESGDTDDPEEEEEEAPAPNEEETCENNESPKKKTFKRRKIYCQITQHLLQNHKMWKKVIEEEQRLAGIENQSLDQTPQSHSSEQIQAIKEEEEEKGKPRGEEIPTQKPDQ
Protocol: as §1

PDE4B = PDE4B (Homo sapiens, UniProt Q07343); experiment: as above; format: biochemical; conditions: substrate cAMP; read-out: IC50 of PQ10 cAMP
Protocol: as §1

PDE5A = PDE5A (Homo sapiens, UniProt O76074); experiment: as above; format: biochemical; conditions: substrate cGMP; read-out: IC50 of PQ10 cGMP
Protocol: as §1

A549 cells = experiment: Growth assay (Cell Titer Glo); format: cell-based; conditions: Homo sapiens; A549, 72 hours, 5% serum; read-out: Growth inhibition IC50
Protocol: (§2) Cells were plated in half area 96-well microtiter plates (Corning) at a density of 3, 000 cells per well. For drug treatment, cells were treated with compound or DMSO as vehicle (final concentration at 0.2%). For siRNA assays, cells were transfected with siRNAs under the same condition as described above. The effect of treatment on cell growth was measured using the Cell Titer Glo (CTG) assay (Promega) as specified by the measurement of viable cells based on ATP content after 72 hours standard culture. All growth assay involving NSCLCs and NHAECs were performed in the presence of 5% serum.
(§3) Drug effects on cell growth and IC50 values were determined as described previously. All experiments were repeated a minimum of three times to determine the reproducibility of the results. All error bars represent standard error of the mean (SEM). Statistical analysis was performed using Student’s t test or other as indicated. A P value of <0.05 was considered statistically significant.

H1975 cells = experiment: Growth assay (Cell Titer Glo); format: cell-based; conditions: Homo sapiens, NCI-H1975; H1975, 72 hours, 5% serum; read-out: Growth inhibition IC50
Protocol: as §2, §3

H460 cells = experiment: Growth assay (Cell Titer Glo); format: cell-based; conditions: Homo sapiens, NCI-H460; H460, 72 hours, 5% serum; read-out: Growth inhibition IC50
Protocol: as §2, §3

[1] = tested on: normal human airway epithelial cells (NHAECs); experiment: Growth assay (Cell Titer Glo); format: cell-based
Protocol: as §2, §3

H1299 cells = experiment: Growth assay (Cell Titer Glo); format: cell-based, human
Protocol: as §2, §3

HOP62 cells = experiment: Growth assay (Cell Titer Glo); format: cell-based, human
Protocol: as §2, §3

human lung tumor cells = experiment: Growth assay (Cell Titer Glo), lung tumor cell panel; format: cell-based
Protocol: as §2, §3

[2] = tested on: HOP62 PDE10 knockdown cells (shPDE10); experiment: Colony formation assay; format: cell-based, human
Protocol: (§4) The transient knockdown of PDE10 in NSCLC cells by PDE10-specific siRNA and scramble siRNA control was performed using RNAiMAX reagent (Invitrogen) as previously described. Effects of siRNA on NSCLC cell growth and PDE10 expression levels were measured after 72 hours of treatment. For a stable knockdown of PDE10, GIPZ lentiviral short hairpin RNA (shRNA) vectors targeting human PDE10, nonsilencing GPIZ lentiviral control vector, and transduction kit were purchased from Open Biosystems. Lentiviral particles of shRNA were produced in HEK293T cells (ATCC) according to the manufacturer’s instructions. HOP62 NSCLC cells were transfected by the lentivirus particles followed by puromycin (5 μg/mL) selection. Stable expression cell lines with shRNA of PDE10 (shPDE10) or lentiviral vector control (shCTL) were obtained by limited dilution for single cell clone and confirmed by Western blotting.
(§5) For colony formation assays, 200 viable cells were plated in 6-well tissue culture plates and were cultured in RPMI medium supplemented with 5% serum. DMSO (0.2%) as the vehicle and different concentrations of PQ10 were added to the cell culture medium for 14 days of treatment. Colonies were counted after staining with crystal violet as previously described.

[3] = tested on: HOP62 cells (shCTL vector control); experiment: Colony formation assay; format: cell-based, human
Protocol: as §4, §5

[4] = tested on: intracellular cGMP levels in H1299 cells; experiment: cGMP biosensor assay (luciferase); format: cell-based, human; conditions: for EC50: Homo sapiens, NCI-H1299, H1299 biosensor cells, read-out: EC50 to induce cGMP elevation
Protocol: (§6) Stable cell lines with an expression of luciferase-based cGMP biosensor were established from H1299 NSCLC cells and HEK293 cells using a genetically encoded GAF-Luc construct (Promega), containing a cGMP-specific binding domain from human PDE5A GAF-A domain fused to modified firefly luciferase (35). Cells were pre-incubated at room temperature in CO2 independent media supplemented with 10% FBS and 5 mmol/L luciferin. For the measurement of intracellular cGMP levels, sodium nitroprusside (SNP) or C-type natriuretic peptide (CNP) in combination with PDE inhibitors were added to initiate the experiment and the increased luminescence values in live cells were detected constantly over a period time of 2 hours.

[5] = tested on: intracellular cGMP levels in HEK293 cells; experiment: cGMP biosensor assay (luciferase); format: cell-based, human
Protocol: as §6

[6] = tested on: PKG activation in H1299 cells; experiment: Western blotting, PKG activation (pSer239-VASP); format: cell-based, human
Protocol: (§7) Whole cell extraction was performed according to a previously described method using cell lysing buffer (Cell Signaling) supplemented with 10 mmol/L NaF for protein phosphorylation studies. Cell lysates were separated by 4-12% gradient, 7% or 10% pre-casting PAGE (Novex/Invitrogen) followed by electrophoretic transfer to a nitrocellulose membrane. Western blotting procedures were performed using Chemiluminescence Reagent (Pierce) and visualized using Chemi Doc Imaging System (BioRad).

β-catenin in H1299 cells = experiment: Western blotting, β-catenin phosphorylation; format: cell-based, human
Protocol: as §7

[7] = tested on: cleaved PARP and caspase 3 in H1299 cells; experiment: Western blotting, cleaved PARP and caspase 3 (apoptosis); format: cell-based, human
Protocol: as §7

[8] = tested on: MAPK signaling in H1299 cells; experiment: Western blotting, RAF/MAPK signaling; format: cell-based, human
Protocol: as §7

[9] = tested on: HOP62 PDE10 knockdown cells (shPDE10); experiment: Growth assay (Cell Titer Glo); format: cell-based, human; conditions: shPDE10, PQ10 2 µmol/L
Protocol: as §4
as §2, with “All growth assay involving NSCLCs and NHAECs were performed in the presence of 5% serum.” left out

[10] = substrate cAMP, read-out: IC50 of PQ10 cAMP
[11] = substrate cGMP, read-out: IC50 of PQ10 cGMP

Compound: COc1cc2ncnc(N3CC[C@@H](Oc4cnc5ccccc5n4)C3)c2cc1OC [PQ10]
- IC50 of PQ10 cGMP (PDE6A/B): Inactive
- IC50 of PQ10 cAMP (PDE7A): Inactive
- IC50 of PQ10 cAMP (PDE8A): Inactive
- IC50 of PQ10 cGMP (PDE9A): Inactive
- IC50 (PDE10A; [10]): 13 nM
- IC50 (PDE10A; [11]): 5 nM
- IC50 (PDE11A; [10]): 30100 nM
- IC50 (PDE11A; [11]): 13200 nM
- IC50 (PDE1A; [10]): 29200 nM
- IC50 (PDE1A; [11]): 8800 nM
- IC50 (PDE2A; [10]): 7000 nM
- IC50 (PDE2A; [11]): 3700 nM
- IC50 (PDE3A; [10]): 470 nM
- IC50 (PDE3A; [11]): 320 nM
- IC50 (PDE4B): 17800 nM
- IC50 (PDE5A): 1800 nM
- IC50 (A549 cells): 540 nM
- IC50 (H1975 cells): 1270 nM
- IC50 (H460 cells): 320 nM
- IC50 ([1]; Homo sapiens, Epithelial cell, NHAEC, 72 hours, 5% serum, read-out: Growth inhibition IC50): 17300 nM
- fold less sensitive to PQ10 treatment (NHAECs vs lung tumor cells) ([1]; growth assays under identical conditions): ≤ 50 fold
- IC50 (H1299 cells; Homo sapiens, NCI-H1299, H1299, 72 hours, 5% serum, read-out: Growth inhibition IC50): 1690 nM
- IC50 (HOP62 cells; Homo sapiens, HOP-62, HOP62, 72 hours, 5% serum, read-out: Growth inhibition IC50): 1010 nM
- growth of vector control HOP62 cells (HOP62 cells; shCTL, PQ10 2 µmol/L): effectively inhibited
- maximum reduction of viable cell number (human lung tumor cells; 3 days of treatment): greater than 75%
- IC50 (human lung tumor cells; Homo sapiens, 72 h, read-out: Growth inhibition IC50 values, range over human lung tumor cells): 320 to 1690 nM
- reduction of colony formation ([2]; 0.1 µmol/L, PDE10 knockdown HOP62 cells): 12.3%
- IC50 ([2]; Homo sapiens, HOP-62, 336 h, HOP62 shPDE10, 14 days of treatment): 172 nM
- reduction of colony formation ([3]; 0.1 µmol/L, HOP62 vector control cells): 54.4%
- IC50 ([3]; Homo sapiens, HOP-62, 336 h, HOP62 shCTL, 14 days of treatment): 98 nM
- time to increase in cGMP levels ([4]; H1299 biosensor cells, sustained to 2 hours): ≤ 1 h
- EC50 ([4]; CNP (100 nmol/L) stimulation): 1310 nM
- EC50 ([4]; SNP (100 µmol/L) stimulation): 1720 nM
- EC50 ([5]; Homo sapiens, HEK293 biosensor cells, SNP (100 µmol/L) stimulation, read-out: EC50 to induce cGMP elevation): 5670 nM
- EC50 fold higher in HEK293 than in H1299 biosensor cells ([5]; SNP (100 µmol/L)): about 3.3 fold
- time to increase in pSer239-VASP levels [6]: ≤ 30 minutes
- phosphorylation level of β-catenin at pSer675 (β-catenin in H1299 cells; H1299 cells): no change
- phosphorylation of β-catenin at pSer552 (β-catenin in H1299 cells; H1299 cells, concentration-dependent, 0.5-1 hour): increased the phosphorylation
- lowest concentration increasing cleaved PARP and caspase 3 ([7]; H1299 cells, 24 hours of treatment): 0.1 µmol/L
- concentration of maximum effect on cleaved PARP and caspase 3 ([7]; H1299 cells, 48 hours of treatment): 5 µmol/L
- MAPK signaling, ERK1/2 (p42/44) phosphorylation at T202/Y204 [8]: concentration- and time-dependent inhibition
- phosphorylation of c-RAF at serine 338 and serine 259 [8]: did not affect
- sensitivity of PDE10 knockdown HOP62 cells in growth assay [9]: appreciably less sensitive

Compound: COC(=O)[C@@]1(OC)C[C@H]2O[C@]1(C)n1c3ccccc3c3c4c(c5c6ccccc6n2c5c31)C(=O)N(C)C4 [KT5823]
- effect on PQ10-induced phosphorylation of β-catenin at pSer552 (β-catenin in H1299 cells; H1299, PQ10 2 µmol/L, 1 hour, KT5823 0.1 µmol/L, H89 1 µmol/L): partial inhibition
- effect on PQ10-induced activation of PARP and caspase 3 ([7]; H1299, 24 hours of treatment): attenuated

Compound: CCCc1nn(C)c2c(=O)[nH]c(-c3cc(S(=O)(=O)N4CCN(C)CC4)ccc3OCC)nc12 [Sildenafil, sildenafil]
- effect on growth of H1299 cells (H1299 cells; not shown): no effect
- effect on luminescence values in biosensor assay ([4]; H1299, CNP 100 nmol/L, sildenafil 1 µmol/L, IBMX 100 µmol/L): did not affect luminescence values

Source: PMC5642477, “Phosphodiesterase 10A is overexpressed in lung tumor cells and inhibitors selectively suppress growth by blocking β-catenin and MAPK signaling” (Oncotarget, 2017)
